Measurements reported in the supplement of paper PMC10627819.

How the values were obtained:
B. subtilis 168 [1] = assay: fitness (endpoint OD595 vs no drug) (fraction); higher = more growth
In short: (§1)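 Background-subtracted growth curves were the basis for fitness, taken as the optical density at entry into stationary phase over the robust mean of no-drug control wells. A cap of 1 was applied. The curves came from OD595 readings every 30 min for 14 h at 37 °C, in 384-well plates seeded at OD595 0.01 with 30 µl, or 55 µl for S. pneumoniae.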

S. aureus DSM 20231 [2] = assay: as above
In short: as §1

S. aureus Newman [3] = assay: as above
In short: as §1

S. pneumoniae D39V [4] = assay: as above
In short: as §1

B. subtilis 168 [5] = assay: Bliss interaction score (quartile over a dose matrix) (fitness difference); higher = more antagonism (negative = synergy)
In short: (§2)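 Fitness was derived from optical density at entry into stationary phase, divided by the robust mean of the no-drug wells on the same plate. That reading was taken as OD595, and the ratio was capped at 1. Single-drug fitness was inferred from the combination data. The Bliss score, observed fitness minus the expected product of single-drug fitness, was summarised as quartiles over technical, biological and donor/recipient replicates.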

S. aureus DSM 20231 [6] = assay: as above
In short: as §2

S. aureus Newman [7] = assay: as above
In short: as §2

S. pneumoniae D39V [8] = assay: as above
In short: as §2
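Throughout, for Bliss interaction score (quartile over a dose matrix): first quartile when negative (synergy) and third quartile when positive (antagonism).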

COc1cccc2c1C(=O)c1c(O)c3c(c(O)c1C2=O)C[C@@](O)(C(=O)CO)C[C@@H]3O[C@H]1C[C@H](N)[C@H](O)[C@H](C)O1 [Doxorubicin] + C[n+]1ccc(-c2cc[n+](C)cc2)cc1 [Paraquat]
fitness
Settings	first compound 0.25 µg/mL	first compound 0.5 µg/mL	first compound 0.625 µg/mL	first compound 1 µg/mL	first compound 1.25 µg/mL	first compound 2.5 µg/mL
B. subtilis 168 [1], partner 1.25 µg/mL	–	–	≥ 1	–	0.892	0.686
B. subtilis 168 [1], partner 2.5 µg/mL	–	–	0.924	–	0.861	0.656
B. subtilis 168 [1], partner 5 µg/mL	–	–	0.862	–	0.876	0.595
S. aureus DSM 20231 [2], partner 1.25 µg/mL	–	–	0.858	–	0.882	0.782
S. aureus DSM 20231 [2], partner 2.5 µg/mL	–	–	0.828	–	0.835	0.761
S. aureus DSM 20231 [2], partner 5 µg/mL	–	–	0.823	–	0.8	0.744
S. aureus Newman [3], partner 1.25 µg/mL	–	–	0.712	–	0.742	0.732
S. aureus Newman [3], partner 2.5 µg/mL	–	–	0.715	–	0.792	0.759
S. aureus Newman [3], partner 5 µg/mL	–	–	0.744	–	0.743	0.761
S. pneumoniae D39V [4], partner 1.5 µg/mL	0.98	0.992	–	0.9	–	–
S. pneumoniae D39V [4], partner 3 µg/mL	0.936	0.979	–	0.886	–	–
S. pneumoniae D39V [4], partner 6 µg/mL	0.916	0.946	–	0.872	–	–

Settings	Bliss interaction score
B. subtilis 168 [5]	0.105
S. aureus DSM 20231 [6]	-0.0686
S. aureus Newman [7]	-0.052
S. pneumoniae D39V [8]	0.0503

COc1cccc2c1C(=O)c1c(O)c3c(c(O)c1C2=O)C[C@@](O)(C(=O)CO)C[C@@H]3O[C@H]1C[C@H](N)[C@H](O)[C@H](C)O1 [Doxorubicin] + C[C@@H]1O[C@@H]1P(=O)(O)O [Fosfomycin]
Settings	fitness
B. subtilis 168 [1], first compound 0.625 µg/mL, partner 1.562 µg/mL	0.7
B. subtilis 168 [1], first compound 0.625 µg/mL, partner 3.124 µg/mL	0.605
B. subtilis 168 [1], first compound 0.625 µg/mL, partner 6.248 µg/mL	0.412
B. subtilis 168 [1], first compound 1.25 µg/mL, partner 1.562 µg/mL	0.655
B. subtilis 168 [1], first compound 1.25 µg/mL, partner 3.124 µg/mL	0.518
B. subtilis 168 [1], first compound 1.25 µg/mL, partner 6.248 µg/mL	0.302
B. subtilis 168 [1], first compound 2.5 µg/mL, partner 1.562 µg/mL	0.369
B. subtilis 168 [1], first compound 2.5 µg/mL, partner 6.248 µg/mL	0.0432
S. aureus DSM 20231 [2], first compound 0.625 µg/mL, partner 0.781 µg/mL	0.685
S. aureus DSM 20231 [2], first compound 0.625 µg/mL, partner 1.562 µg/mL	0.587
S. aureus DSM 20231 [2], first compound 0.625 µg/mL, partner 3.124 µg/mL	0.5
S. aureus DSM 20231 [2], first compound 1.25 µg/mL, partner 0.781 µg/mL	0.681
S. aureus DSM 20231 [2], first compound 1.25 µg/mL, partner 1.562 µg/mL	0.603
S. aureus DSM 20231 [2], first compound 1.25 µg/mL, partner 3.124 µg/mL	0.493
S. aureus DSM 20231 [2], first compound 2.5 µg/mL, partner 0.781 µg/mL	0.637
S. aureus DSM 20231 [2], first compound 2.5 µg/mL, partner 1.562 µg/mL	0.506
S. aureus DSM 20231 [2], first compound 2.5 µg/mL, partner 3.124 µg/mL	0.449
S. aureus Newman [3], first compound 0.625 µg/mL, partner 0.781 µg/mL	0.615
S. aureus Newman [3], first compound 0.625 µg/mL, partner 1.562 µg/mL	0.547
S. aureus Newman [3], first compound 0.625 µg/mL, partner 3.124 µg/mL	0.212
S. aureus Newman [3], first compound 1.25 µg/mL, partner 0.781 µg/mL	0.618
S. aureus Newman [3], first compound 1.25 µg/mL, partner 1.562 µg/mL	0.535
S. aureus Newman [3], first compound 1.25 µg/mL, partner 3.124 µg/mL	0.138
S. aureus Newman [3], first compound 2.5 µg/mL, partner 0.781 µg/mL	0.595
S. aureus Newman [3], first compound 2.5 µg/mL, partner 1.562 µg/mL	0.443
S. aureus Newman [3], first compound 2.5 µg/mL, partner 3.124 µg/mL	0.0485
S. pneumoniae D39V [4], first compound 0.25 µg/mL, partner 1.25 µg/mL	0.881
S. pneumoniae D39V [4], first compound 0.25 µg/mL, partner 2.5 µg/mL	0.852
S. pneumoniae D39V [4], first compound 0.25 µg/mL, partner 5 µg/mL	0.635
S. pneumoniae D39V [4], first compound 0.5 µg/mL, partner 1.25 µg/mL	0.938
S. pneumoniae D39V [4], first compound 0.5 µg/mL, partner 2.5 µg/mL	0.859
S. pneumoniae D39V [4], first compound 0.5 µg/mL, partner 5 µg/mL	0.646
S. pneumoniae D39V [4], first compound 1 µg/mL, partner 1.25 µg/mL	0.861
S. pneumoniae D39V [4], first compound 1 µg/mL, partner 2.5 µg/mL	0.823
S. pneumoniae D39V [4], first compound 1 µg/mL, partner 5 µg/mL	0.669

Settings	Bliss interaction score
B. subtilis 168 [5]	-0.142
S. aureus DSM 20231 [6]	0.0338
S. aureus Newman [7]	0.122
S. pneumoniae D39V [8]	-0.0488

COc1cccc2c1C(=O)c1c(O)c3c(c(O)c1C2=O)C[C@@](O)(C(=O)CO)C[C@@H]3O[C@H]1C[C@H](N)[C@H](O)[C@H](C)O1 [Doxorubicin] + O=C(O[C@@H]1Cc2c(O)cc(O)cc2O[C@@H]1c1cc(O)c(O)c(O)c1)c1cc(O)c(O)c(O)c1 [EGCG]
fitness
Settings	partner 6.25 µg/mL	partner 12.5 µg/mL	partner 25 µg/mL	partner 50 µg/mL
B. subtilis 168 [1], first compound 0.625 µg/mL	0.934	0.617	–	–
B. subtilis 168 [1], first compound 1.25 µg/mL	0.932	0.554	–	–
B. subtilis 168 [1], first compound 2.5 µg/mL	0.737	0.429	–	–
S. aureus DSM 20231 [2], first compound 0.625 µg/mL	–	0.688	0.707	–
S. aureus DSM 20231 [2], first compound 1.25 µg/mL	–	0.708	0.676	–
S. aureus DSM 20231 [2], first compound 2.5 µg/mL	–	0.728	0.715	–
S. aureus Newman [3], first compound 0.625 µg/mL	–	0.731	0.712	–
S. aureus Newman [3], first compound 1.25 µg/mL	–	0.705	0.703	0.594
S. aureus Newman [3], first compound 2.5 µg/mL	–	0.678	0.66	0.617
S. pneumoniae D39V [4], first compound 0.25 µg/mL	–	0.916	0.987	0.924
S. pneumoniae D39V [4], first compound 0.5 µg/mL	–	0.904	0.845	≥ 1
S. pneumoniae D39V [4], first compound 1 µg/mL	–	–	0.804	0.903

Settings	Bliss interaction score
B. subtilis 168 [5]	-0.0819
S. aureus DSM 20231 [6]	-0.107
S. aureus Newman [7]	0.0447
S. pneumoniae D39V [8]	0.0782

C[C@@H]1O[C@@H]1P(=O)(O)O [Fosfomycin] + COc1ccc(C[C@H](N)C(=O)N[C@H]2[C@@H](O)[C@H](n3cnc4c(N(C)C)ncnc43)O[C@@H]2CO)cc1 [Puromycin]
fitness
Settings	partner 0.39 µg/mL	partner 0.78 µg/mL	partner 1 µg/mL	partner 1.56 µg/mL	partner 2 µg/mL
B. subtilis 168 [1], first compound 1.562 µg/mL	0.694	0.712	–	0.672	–
B. subtilis 168 [1], first compound 3.124 µg/mL	0.65	0.562	–	0.583	–
B. subtilis 168 [1], first compound 6.248 µg/mL	0.407	0.354	–	0.378	–
S. aureus DSM 20231 [2], first compound 0.781 µg/mL	0.799	0.776	–	0.829	–
S. aureus DSM 20231 [2], first compound 1.562 µg/mL	0.631	0.662	–	0.632	–
S. aureus DSM 20231 [2], first compound 3.124 µg/mL	0.491	0.541	–	0.514	–
S. aureus Newman [3], first compound 0.781 µg/mL	0.55	0.579	–	0.612	–
S. aureus Newman [3], first compound 1.562 µg/mL	0.463	0.495	–	0.516	–
S. aureus Newman [3], first compound 3.124 µg/mL	0.134	0.149	–	0.108	–
S. pneumoniae D39V [4], first compound 1.25 µg/mL	–	–	0.974	–	0.916
S. pneumoniae D39V [4], first compound 2.5 µg/mL	–	–	0.982	–	0.89
S. pneumoniae D39V [4], first compound 5 µg/mL	–	–	0.902	–	0.898

fitness, S. aureus DSM 20231 [2], one replicate
Settings	first compound 0.781 µg/mL	first compound 1.562 µg/mL	first compound 3.124 µg/mL
partner 3.12 µg/mL	0.828	0.733	0.611
partner 6.24 µg/mL	0.707	0.488	0.329

Settings	Bliss interaction score
B. subtilis 168 [5]	0.0393
S. aureus DSM 20231 [6]	0.047
S. aureus Newman [7]	-0.0684
S. pneumoniae D39V [8]	0.116

CO/N=C(\C(=O)N[C@@H]1C(=O)N2C(C(=O)O)=C(COC(C)=O)CS[C@H]12)c1csc(N)n1 [Cefotaxime] + CN(N=O)C(=O)N[C@@H](C=O)[C@@H](O)[C@H](O)[C@H](O)CO [Streptozotocin]
fitness, one replicate
Settings	partner 0.15 µg/mL	partner 0.3 µg/mL	partner 0.6 µg/mL
B. subtilis 168 [1], first compound 0.00775 µg/mL	0.767	0.832	0.787
B. subtilis 168 [1], first compound 0.0155 µg/mL	0.721	0.743	0.715
B. subtilis 168 [1], first compound 0.031 µg/mL	0.526	0.518	0.502
B. subtilis 168 [1], first compound 0.5 µg/mL	0.34	0.342	0.347
B. subtilis 168 [1], first compound 1 µg/mL	0.132	0.136	0.146
B. subtilis 168 [1], first compound 2 µg/mL	0.0874	0.126	0.183
S. aureus DSM 20231 [2], first compound 0.039 µg/mL	0.756	0.675	0.551
S. aureus Newman [3], first compound 0.625 µg/mL	0.0252	0.0161	0
S. aureus Newman [3], first compound 1.25 µg/mL	0.023	0.0017	0
S. aureus Newman [3], first compound 2.5 µg/mL	0.0355	0.0302	0

fitness
Settings	first compound 0.0018 µg/mL	first compound 0.0035 µg/mL	first compound 0.007 µg/mL	first compound 0.078 µg/mL	first compound 0.156 µg/mL	first compound 0.312 µg/mL
S. aureus DSM 20231 [2], partner 0.15 µg/mL	–	–	–	0.691	0.653	0.609
S. aureus DSM 20231 [2], partner 0.3 µg/mL	–	–	–	0.612	0.617	0.614
S. aureus DSM 20231 [2], partner 0.6 µg/mL	–	–	–	0.552	0.564	0.521
S. aureus Newman [3], partner 0.15 µg/mL	–	–	–	0.641	0.476	0.253
S. aureus Newman [3], partner 0.3 µg/mL	–	–	–	0.539	0.389	0.133
S. aureus Newman [3], partner 0.6 µg/mL	–	–	–	0.403	0.204	0.0516
S. pneumoniae D39V [4], partner 1.2 µg/mL	0.957	0.963	0.889	–	–	–
S. pneumoniae D39V [4], partner 2.4 µg/mL	0.97	0.964	0.775	–	–	–
S. pneumoniae D39V [4], partner 4.8 µg/mL	0.978	0.938	0.861	–	–	–

Settings	Bliss interaction score
B. subtilis 168 [5]	0.0848
S. aureus DSM 20231 [6]	-0.0448
S. aureus Newman [7]	-0.0599
S. pneumoniae D39V [8]	0.0325
